Measurements as given in patent publication US20090239841A1, “Diaryl Ureas as CB1 Antagonists” (priority 2004, published 2009).

biological target: T1, hCB1 (Homo sapiens, UniProt P21554); test: Agonist-induced GTP binding (GTPγ35S) assay at CB1, Example 8; format: biochemical; conditions: IC50 at CB1, determined as described in Example 8; read-out: IC50
T1 construct: made in house; host or cells: Sf9 insect cells (baculovirus), P2 membranes
In short: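 Antagonism read as inhibition of 1 nM CP55,940-stimulated GTPγ35S ([…]) binding, compounds at 10^−10 to 10^−5 M. Baculovirus-infected Sf9 membranes bearing hCB1 plus G-protein subunits, 60 min room-temperature incubation with 5 μM GDP. Filtration and scintillation counting; data as percent over basal.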

T1 sequence (P21554 whole entry): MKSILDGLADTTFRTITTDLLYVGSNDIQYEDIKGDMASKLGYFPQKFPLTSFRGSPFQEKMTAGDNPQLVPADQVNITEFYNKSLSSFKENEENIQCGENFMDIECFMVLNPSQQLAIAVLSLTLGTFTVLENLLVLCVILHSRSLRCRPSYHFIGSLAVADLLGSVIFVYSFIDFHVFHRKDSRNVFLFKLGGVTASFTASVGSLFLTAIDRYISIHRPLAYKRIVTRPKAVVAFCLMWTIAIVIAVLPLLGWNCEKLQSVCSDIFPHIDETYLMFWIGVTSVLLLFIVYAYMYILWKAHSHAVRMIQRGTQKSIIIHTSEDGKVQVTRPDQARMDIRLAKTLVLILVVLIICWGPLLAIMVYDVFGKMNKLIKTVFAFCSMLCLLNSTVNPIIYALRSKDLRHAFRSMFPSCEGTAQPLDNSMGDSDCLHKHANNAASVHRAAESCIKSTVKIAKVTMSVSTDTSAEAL

IC50, < 2000 nM:
CCC(=O)c1ccc(NC(=O)Nc2ccc(F)c(C)c2)cc1 [Compound 735, 1-(4-fluoro-3-methylphenyl)-3-(4-propionylphenyl)urea]
CCOC(=O)c1cccc(NC(=O)Nc2cccc(OCCO)c2)c1 [Compound 756, ethyl 3-[({[3-(2-hydroxyethoxy)phenyl]amino}carbonyl)amino] benzoate]
CCOC(=O)c1ccc(NC(=O)Nc2ccc(CCO)cc2)cc1 [Compound 754, ethyl 4-[({[4-(2-hydroxyethyl)phenyl]amino}carbonyl)amino] benzoate]
CC(C)Oc1cccc(NC(=O)Nc2ccc([N+](=O)[O-])cc2)c1 [Compound 563, 1-(3-isopropoxyphenyl)-3-(4-nitrophenyl)urea]
Cc1cccc(NC(=O)Nc2ccc(CC#N)cc2)c1 [Compound 459, 1-[4-(cyanomethyl)phenyl]-3-(3-methylphenyl)urea]
Cc1cc(NC(=O)Nc2ccc(OC(F)F)cc2)ccc1F [Compound 608, 1-[4-(difluoromethoxy)phenyl]-3-(4-fluoro-3-methylphenyl)urea]
COC(=O)c1cccc(NC(=O)Nc2ccc(OCC#N)cc2)c1 [Compound 716, methyl 3-[({[4-(cyanomethoxy)phenyl]amino}carbonyl)amino] benzoate]
CC(C)Oc1ccc(NC(=O)Nc2cccc(Cl)c2)cc1 [Compound 404, 1-(3-chlorophenyl)-3-(4-isopropoxyphenyl)urea]
COC(=O)c1ccc(NC(=O)Nc2ccc(O)cc2)cc1 [Compound 747, methyl 4-({[(4-hydroxyphenyl)amino]carbonyl}amino)benzoate]
CCCOc1ccc(NC(=O)Nc2cccc(C(=O)OCC)c2)cc1 [Compound 671, ethyl 3-({[(4-propoxyphenyl)amino]carbonyl}amino)benzoate]
COCc1cccc(NC(=O)Nc2ccc(C(C)C)cc2)c1 [Compound 571, 1-(4-isopropylphenyl)-3-[3-(methoxymethyl)phenyl]urea]
Cc1ccc(NC(=O)Nc2ccc(F)cc2)cc1F [Compound 430, 1-(3-fluoro-4-methylphenyl)-3-(4-fluorophenyl)urea]
CCOC(=O)c1ccc(NC(=O)Nc2cccc(OCC)c2)cc1 [Compound 662, ethyl 4-({[(3-ethoxyphenyl)amino]carbonyl}amino)benzoate]
Cc1ccc2nc(NC(=O)Nc3ccccc3)sc2c1 [Compound 323, 1-(6-methyl-1,3-benzothiazol-2-yl)-3-phenylurea]
CCCOc1ccc(NC(=O)Nc2ccc(C(C)C)cc2)cc1 [Compound 573, 1-(4-isopropylphenyl)-3-(4-propoxyphenyl)urea]
CCCc1ccc(NC(=O)Nc2cccc(C(=O)OC)c2)cc1 [Compound 650, methyl 3-({[(4-propylphenyl)amino]carbonyl}amino)benzoate]
N#CCOc1ccc(NC(=O)Nc2ccc(F)c(F)c2)cc1 [Compound 732, 1-[4-(cyanomethoxy)phenyl]-3-(3,4-difluorophenyl)urea]
CCOC(=O)c1ccc(NC(=O)Nc2cccc(OC(C)C)c2)cc1 [Compound 673, ethyl 4-({[(3-isopropoxyphenyl)amino]carbonyl}amino)benzoate]
CCCc1ccc(NC(=O)Nc2ccc(C)c(F)c2)cc1 [Compound 655, 1-(3-fluoro-4-methylphenyl)-3-(4-propylphenyl)urea]
CCCc1ccc(NC(=O)Nc2ccc(C(=O)OC)cc2)cc1 [Compound 651, methyl 4-({[(4-propylphenyl)amino]carbonyl}amino)benzoate]
COCc1ccc(NC(=O)Nc2ccc(OC(F)F)cc2)cc1 [Compound 533, 1-[4-(difluoromethoxy)phenyl]-3-[4-(methoxymethyl)phenyl]urea]
CC(C)Oc1ccc(NC(=O)Nc2ccc(F)c(F)c2)cc1 [Compound 694, 1-(3,4-difluorophenyl)-3-(4-isopropoxyphenyl)urea]
CCCc1ccc(NC(=O)Nc2cccc(CC)c2)cc1 [Compound 334, 1-(3-ethylphenyl)-3-(4-propylphenyl)urea]
Cc1cc(NC(=O)Nc2cccc(OC(C)C)c2)ccc1F [Compound 689, 1-(4-fluoro-3-methylphenyl)-3-(3-isopropoxyphenyl)urea]
CCOC(=O)c1ccc(NC(=O)Nc2cccc(OCCO)c2)cc1 [Compound 757, ethyl 4-[({[3-(2-hydroxyethoxy)phenyl]amino}carbonyl)amino] benzoate]
CCCOc1ccc(NC(=O)Nc2ccccc2OC(F)F)cc1 [Compound 534, 1-[2-(difluoromethoxy)phenyl]-3-(4-propoxyphenyl)urea]
CCc1ccc(NC(=O)Nc2ccc(F)c(C)c2)cc1 [Compound 440, 1-(4-ethylphenyl)-3-(4-fluoro-3-methylphenyl)urea]
Cc1ccc(NC(=O)Nc2ccc(OC(F)F)cc2)cc1 [Compound 308, N-[4-(difluoromethoxy)phenyl]-N′-(4-methylphenyl)urea]
COc1cccc(NC(=O)Nc2ccc(C(C)=O)cc2)c1 [Compound 408, 1-(4-acetylphenyl)-3-(3-methoxyphenyl)urea]
CC(=O)c1cccc(NC(=O)Nc2cccc(OC(F)F)c2)c1 [Compound 425, 1-(3-acetylphenyl)-3-[3-(difluoromethoxy)phenyl]urea]
COCc1ccc(NC(=O)Nc2ccc(C)c(C)c2)cc1 [Compound 684, 1-(3,4-dimethylphenyl)-3-[4-(methoxymethyl)phenyl]urea]
CCOC(=O)c1cccc(NC(=O)Nc2ccc(C(=O)CC)cc2)c1 [Compound 721, ethyl 3-({[(4-propionylphenyl)amino]carbonyl}amino)benzoate]
CCOc1cccc(NC(=O)Nc2cc(F)cc(F)c2)c1 [Compound 702, 1-(3,5-difluorophenyl)-3-(3-ethoxyphenyl)urea]

same assay, conditions: Table I; IC50 at CB1, GTP binding with 1 nM CP55,940; read-out: IC50

IC50, < 2000 nM:
CCCCc1ccc(NC(=O)Nc2ccc(C)cc2)cc1 [Compound 37, N-(4-butylphenyl)-N′-(4-methylphenyl)urea]
Cc1ccc(NC(=O)Nc2ccc(Cl)cc2)cc1 [Compound 43, N-(4-chlorophenyl)-N′-(4-methylphenyl)urea]
Cc1ccc(NC(=O)Nc2cccc(OC(C)C)c2)cc1 [Compound 38, N-(3-isopropoxyphenyl)-N′-(4-methylphenyl)urea]
CCOc1cccc(NC(=O)Nc2ccc(OC(F)F)cc2)c1 [Compound 9, N-[4-(difluoromethoxy)phenyl]-N′-(3-ethoxyphenyl)urea]
CCc1ccc(NC(=O)Nc2ccc(C(C)=O)cc2)cc1 [Compound 22, N-(4-acetylphenyl)-N′-(4-ethylphenyl)urea]

same assay, conditions: Table II; IC50 at CB1, GTP binding with 1 nM CP55,940; read-out: IC50

IC50, < 2000 nM:
O=C(Nc1ccc(OC(F)F)cc1)Nc1ccc2c(c1)CCC2 [Compound 80, N-[4-(difluoromethoxy)phenyl]-N′-(2,3-dihydro-1H-inden-5-yl)urea]
CCCc1ccc(NC(=O)Nc2ccc(Cl)cc2)cc1 [Compound 185, N-(4-chlorophenyl)-N′-(4-propylphenyl)urea]
O=C(Nc1ccc(OC(F)F)cc1)Nc1cc(OC(F)F)ncn1 [Compound 137, N-[4-(difluoromethoxy)phenyl]-N′-[6-(difluoromethoxy)pyrimidin-4-yl]urea]
CCc1cccc(NC(=O)Nc2ccc(C(C)=O)cc2)c1 [Compound 190, N-(4-acetylphenyl)-N′-(3-ethylphenyl)urea]
CCc1ccc(NC(=O)Nc2ccc(F)c(C#N)c2)cc1 [Compound 152, N-(3-cyano-4-fluorophenyl)-N′-(4-ethylphenyl)urea]
N#Cc1cncc(-c2cccc(NC(=O)Nc3ccc(OC(F)F)cc3)c2)c1 [Compound 73, N-[3-(5-cyanopyridin-3-yl)phenyl]-N′-[4-(difluoromethoxy)phenyl]urea]
O=C(Nc1ccc(OC(F)F)cc1)Nc1cc(-c2ccccc2)n[nH]1 [Compound 107, N-[4-(difluoromethoxy)phenyl]-N′-(3-phenyl-1H-pyrazol-5-yl)urea]
CCOc1ccc(NC(=O)Nc2cccc(C)c2)cc1 [Compound 158, N-(4-ethoxyphenyl)-N′-(3-methylphenyl)urea]
Cc1cccc(NC(=O)Nc2ccc(OC(C)C)cc2)c1 [Compound 213, N-(4-isopropoxyphenyl)-N′-(3-methylphenyl)urea]
O=C(Nc1ccc(OC(F)F)cc1)Nc1cccc(-c2ccc3ncccc3c2)c1 [Compound 67, N-[4-(difluoromethoxy)phenyl]-N′-(3-quinolin-6-ylphenyl)urea]
COC(=O)c1ccc(NC(=O)Nc2ccc(OC(F)F)cc2)cc1 [Compound 132, methyl 4-[({[4-(difluoromethoxy)phenyl]amino}carbonyl)amino]benzoate]
N#Cc1ccc(NC(=O)Nc2cccc(OC(F)F)c2)cc1 [Compound 283, N-(4-cyanophenyl)-N′-[3-(difluoromethoxy)phenyl]urea]
COCc1ccc(NC(=O)Nc2ccc(C(C)=O)cc2)cc1 [Compound 271, N-(4-acetylphenyl)-N′-[4-(methoxymethyl)phenyl]urea]
COc1ccc(NC(=O)Nc2ccc(OC(F)F)cc2)cn1 [Compound 113, N-[4-(difluoromethoxy)phenyl]-N′-(6-methoxypyridin-3-yl)urea]
O=C(Nc1ccc(F)cc1)Nc1ccc(OC(F)F)cc1 [Compound 221, N-[4-(difluoromethoxy)phenyl]-N′-(4-fluorophenyl)urea]
